{
  "source": "patent US6420147B1",
  "about": "“Haloalkaliphilic microorganisms” (Genencor International, Inc., priority 1991, dated 2002)",
  "key": {"[1]": {"tested_on": "Cluster 4 haloalkaliphilic bacteria", "test": "Antibiotic sensitivity, distribution of positive characters", "type": "cell-based, haloalkaliphilic eubacteria", "conditions": "share of strains of cluster 4 (78.5% similarity level, SSM) scored positive = clear zone around antibiotic disk; Medium A agar, 37° C., up to 14 days", "protocol": "(§1) A light suspension of bacteria in alkaline, saline, nutrient broth was spread on the surface of alkaline nutrient, saline agar (Medium A) and allowed to dry. Commercially available antibiotic susceptibility test disks (Oxoid or Mast Laboratories: Merseyside, U.K.) were applied to the agar surface. The bacteria were cultivated at 37° C. for up to 14 days. Clear zones around the antibiotic disks indicated sensitivity and were recorded as positive."}, "[2]": {"tested_on": "Cluster 3 haloalkaliphilic bacteria", "test": "Antibiotic sensitivity, distribution of positive characters", "type": "cell-based, haloalkaliphilic eubacteria", "conditions": "share of strains of cluster 3 (78.5% similarity level, SSM) scored positive = clear zone around antibiotic disk; Medium A agar, 37° C., up to 14 days", "protocol": "as §1"}, "Strain 95LM.4": {"tested_on": "Strain 95LM.4", "test": "Antibiotic sensitivity (susceptibility test disks on Medium A agar)", "type": "cell-based", "conditions": "antibiotic disks (contents in Appendix C), 37° C., up to 14 days", "protocol": "as §1"}, "Strain 93dLM.4": {"tested_on": "Strain 93dLM.4", "test": "Antibiotic sensitivity (susceptibility test disks on Medium A agar)", "type": "cell-based", "conditions": "antibiotic disks (contents in Appendix C), 37° C., up to 14 days", "protocol": "as §1"}, "Strain 931LM.4": {"tested_on": "Strain 931LM.4", "test": "Antibiotic sensitivity (susceptibility test disks on Medium A agar)", "type": "cell-based", "conditions": "antibiotic disks (contents in Appendix C), 37° C., up to 14 days", "protocol": "as §1"}, "Strain 103Nt.4": {"tested_on": "Strain 103Nt.4", "test": "Antibiotic sensitivity (susceptibility test disks on Medium A agar)", "type": "cell-based", "conditions": "antibiotic disks (contents in Appendix C), 37° C., up to 14 days", "protocol": "as §1"}, "Strain 31M.4": {"tested_on": "Strain 31M.4", "test": "Antibiotic sensitivity (susceptibility test disks on Medium A agar)", "type": "cell-based", "conditions": "antibiotic disks (contents in Appendix C), 37° C., up to 14 days", "protocol": "as §1"}, "Strain 98Nt.4": {"tested_on": "Strain 98Nt.4", "test": "Antibiotic sensitivity (susceptibility test disks on Medium A agar)", "type": "cell-based", "conditions": "antibiotic disks (contents in Appendix C), 37° C., up to 14 days", "protocol": "as §1"}, "Strain 86M.4": {"tested_on": "Strain 86M.4", "test": "Antibiotic sensitivity (susceptibility test disks on Medium A agar)", "type": "cell-based", "conditions": "antibiotic disks (contents in Appendix C), 37° C., up to 14 days", "protocol": "as §1"}, "[3]": {"tested_on": "Cluster 1 haloalkaliphilic bacteria", "test": "Antibiotic sensitivity, distribution of positive characters", "type": "cell-based", "conditions": "share of strains of cluster 1 (78.5% similarity level, SSM) scored positive = clear zone around antibiotic disk; Medium A agar, 37° C., up to 14 days", "protocol": "as §1"}, "[4]": {"tested_on": "Cluster 2 haloalkaliphilic bacteria", "test": "Antibiotic sensitivity, distribution of positive characters", "type": "cell-based", "conditions": "share of strains of cluster 2 (78.5% similarity level, SSM) scored positive = clear zone around antibiotic disk; Medium A agar, 37° C., up to 14 days", "protocol": "as §1"}},
  "data": [
    {"compound": "CC1(C)S[C@@H]2[C@H](NC(=O)[C@H](N)c3ccccc3)C(=O)N2[C@H]1C(=O)O", "note": "[ampicillin]", "values": [
      {"measurement": "Distribution of positive characters: antibiotic sensitivity, Cluster 4", "setting": "[1]", "result": 67},
      {"measurement": "Distribution of positive characters: antibiotic sensitivity, Cluster 3", "setting": "[2]", "result": 100},
      {"measurement": "Inhibition of growth by antibiotic", "setting": "Strain 95LM.4", "result": "inhibited"},
      {"measurement": "Inhibition of growth by antibiotic", "setting": "Strain 93dLM.4", "result": "inhibited"},
      {"measurement": "Inhibition of growth by antibiotic", "setting": "Strain 931LM.4", "result": "inhibited"},
      {"measurement": "Inhibition of growth by antibiotic", "setting": "Strain 103Nt.4", "result": "inhibited"},
      {"measurement": "Inhibition of growth by antibiotic", "setting": "Strain 31M.4", "result": "inhibited"},
      {"measurement": "Inhibition of growth by antibiotic", "setting": "Strain 98Nt.4", "result": "not inhibited"},
      {"measurement": "Inhibition of growth by antibiotic", "setting": "Strain 86M.4", "result": "not inhibited"},
      {"measurement": "Distribution of positive characters: antibiotic sensitivity, Cluster 1", "setting": "[3]", "result": 0},
      {"measurement": "Distribution of positive characters: antibiotic sensitivity, Cluster 2", "setting": "[4]", "result": 0}
    ]},
    {"compound": "O=C(N[C@H](CO)[C@H](O)c1ccc([N+](=O)[O-])cc1)C(Cl)Cl", "note": "[chloramphenicol]", "values": [
      {"measurement": "Distribution of positive characters: antibiotic sensitivity, Cluster 4", "setting": "[1]", "result": 100},
      {"measurement": "Distribution of positive characters: antibiotic sensitivity, Cluster 3", "setting": "[2]", "result": 100},
      {"measurement": "Inhibition of growth by antibiotic", "setting": "Strain 95LM.4", "result": "inhibited"},
      {"measurement": "Inhibition of growth by antibiotic", "setting": "Strain 931LM.4", "result": "inhibited"},
      {"measurement": "Inhibition of growth by antibiotic", "setting": "Strain 103Nt.4", "result": "not inhibited"},
      {"measurement": "Inhibition of growth by antibiotic", "setting": "Strain 31M.4", "result": "inhibited"},
      {"measurement": "Inhibition of growth by antibiotic", "setting": "Strain 98Nt.4", "result": "not inhibited"},
      {"measurement": "Inhibition of growth by antibiotic", "setting": "Strain 86M.4", "result": "not inhibited"},
      {"measurement": "Distribution of positive characters: antibiotic sensitivity, Cluster 1", "setting": "[3]", "result": 0},
      {"measurement": "Distribution of positive characters: antibiotic sensitivity, Cluster 2", "setting": "[4]", "result": 0}
    ]},
    {"compound": "CC[C@H]1OC(=O)[C@H](C)[C@@H](O[C@H]2C[C@@](C)(OC)[C@@H](O)[C@H](C)O2)[C@H](C)[C@@H](O[C@@H]2O[C@H](C)C[C@H](N(C)C)[C@H]2O)[C@](C)(O)C[C@@H](C)C(=O)[C@H](C)[C@@H](O)[C@]1(C)O", "note": "[erythromycin]", "values": [
      {"measurement": "Distribution of positive characters: antibiotic sensitivity, Cluster 4", "setting": "[1]", "result": 100},
      {"measurement": "Distribution of positive characters: antibiotic sensitivity, Cluster 3", "setting": "[2]", "result": 100},
      {"measurement": "Inhibition of growth by antibiotic", "setting": "Strain 95LM.4", "result": "inhibited"},
      {"measurement": "Inhibition of growth by antibiotic", "setting": "Strain 93dLM.4", "result": "inhibited"},
      {"measurement": "Inhibition of growth by antibiotic", "setting": "Strain 931LM.4", "result": "inhibited"},
      {"measurement": "Inhibition of growth by antibiotic", "setting": "Strain 103Nt.4", "result": "not inhibited"},
      {"measurement": "Inhibition of growth by antibiotic", "setting": "Strain 31M.4", "result": "inhibited"},
      {"measurement": "Inhibition of growth by antibiotic", "setting": "Strain 98Nt.4", "result": "inhibited"},
      {"measurement": "Inhibition of growth by antibiotic", "setting": "Strain 86M.4", "result": "inhibited"},
      {"measurement": "Distribution of positive characters: antibiotic sensitivity, Cluster 1", "setting": "[3]", "result": 86},
      {"measurement": "Distribution of positive characters: antibiotic sensitivity, Cluster 2", "setting": "[4]", "result": 73}
    ]},
    {"compound": "CO[C@@H]1[C@@H](OC(N)=O)[C@@H](O)[C@H](Oc2ccc3c(O)c(NC(=O)c4ccc(O)c(CC=C(C)C)c4)c(=O)oc3c2C)OC1(C)C", "note": "[novobiocin]", "values": [
      {"measurement": "Distribution of positive characters: antibiotic sensitivity, Cluster 4", "setting": "[1]", "result": 100},
      {"measurement": "Distribution of positive characters: antibiotic sensitivity, Cluster 3", "setting": "[2]", "result": 33},
      {"measurement": "Inhibition of growth by antibiotic", "setting": "Strain 95LM.4", "result": "inhibited"},
      {"measurement": "Inhibition of growth by antibiotic", "setting": "Strain 93dLM.4", "result": "inhibited"},
      {"measurement": "Inhibition of growth by antibiotic", "setting": "Strain 931LM.4", "result": "inhibited"},
      {"measurement": "Inhibition of growth by antibiotic", "setting": "Strain 103Nt.4", "result": "inhibited"},
      {"measurement": "Inhibition of growth by antibiotic", "setting": "Strain 31M.4", "result": "inhibited"},
      {"measurement": "Inhibition of growth by antibiotic", "setting": "Strain 98Nt.4", "result": "inhibited"},
      {"measurement": "Inhibition of growth by antibiotic", "setting": "Strain 86M.4", "result": "inhibited"},
      {"measurement": "Distribution of positive characters: antibiotic sensitivity, Cluster 1", "setting": "[3]", "result": 100},
      {"measurement": "Distribution of positive characters: antibiotic sensitivity, Cluster 2", "setting": "[4]", "result": 82}
    ]},
    {"compound": "CC1(C)S[C@@H]2[C@H](NC(=O)Cc3ccccc3)C(=O)N2[C@H]1C(=O)O", "note": "[penicillin G]", "values": [
      {"measurement": "Inhibition of growth by antibiotic", "setting": "Strain 95LM.4", "result": "inhibited"},
      {"measurement": "Inhibition of growth by antibiotic", "setting": "Strain 93dLM.4", "result": "inhibited"},
      {"measurement": "Inhibition of growth by antibiotic", "setting": "Strain 931LM.4", "result": "inhibited"},
      {"measurement": "Inhibition of growth by antibiotic", "setting": "Strain 103Nt.4", "result": "inhibited"},
      {"measurement": "Inhibition of growth by antibiotic", "setting": "Strain 31M.4", "result": "inhibited"},
      {"measurement": "Inhibition of growth by antibiotic", "setting": "Strain 98Nt.4", "result": "not inhibited"},
      {"measurement": "Inhibition of growth by antibiotic", "setting": "Strain 86M.4", "result": "not inhibited"}
    ]},
    {"compound": "[H]/N=C(/N)N[C@H]1[C@H](O)[C@@H](O)[C@H](O[C@@H]2O[C@@H](C)[C@](O)(C=O)[C@H]2O[C@@H]2O[C@@H](CO)[C@H](O)[C@@H](O)[C@@H]2NC)[C@@H](N/C(N)=N\\[H])[C@@H]1O", "note": "[streptomycin]", "values": [
      {"measurement": "Distribution of positive characters: antibiotic sensitivity, Cluster 4", "setting": "[1]", "result": 0},
      {"measurement": "Distribution of positive characters: antibiotic sensitivity, Cluster 3", "setting": "[2]", "result": 67},
      {"measurement": "Inhibition of growth by antibiotic", "setting": "Strain 95LM.4", "result": "not inhibited"},
      {"measurement": "Inhibition of growth by antibiotic", "setting": "Strain 93dLM.4", "result": "not inhibited"},
      {"measurement": "Inhibition of growth by antibiotic", "setting": "Strain 931LM.4", "result": "inhibited"},
      {"measurement": "Inhibition of growth by antibiotic", "setting": "Strain 103Nt.4", "result": "inhibited"},
      {"measurement": "Inhibition of growth by antibiotic", "setting": "Strain 31M.4", "result": "inhibited"},
      {"measurement": "Inhibition of growth by antibiotic", "setting": "Strain 98Nt.4", "result": "not inhibited"},
      {"measurement": "Inhibition of growth by antibiotic", "setting": "Strain 86M.4", "result": "not inhibited"},
      {"measurement": "Distribution of positive characters: antibiotic sensitivity, Cluster 1", "setting": "[3]", "result": 0},
      {"measurement": "Distribution of positive characters: antibiotic sensitivity, Cluster 2", "setting": "[4]", "result": 18}
    ]},
    {"compound": "gentamicin", "values": [
      {"measurement": "Inhibition of growth by antibiotic", "setting": "Strain 95LM.4", "result": "not inhibited"},
      {"measurement": "Inhibition of growth by antibiotic", "setting": "Strain 93dLM.4", "result": "inhibited"},
      {"measurement": "Inhibition of growth by antibiotic", "setting": "Strain 931LM.4", "result": "inhibited"},
      {"measurement": "Inhibition of growth by antibiotic", "setting": "Strain 103Nt.4", "result": "not inhibited"},
      {"measurement": "Inhibition of growth by antibiotic", "setting": "Strain 31M.4", "result": "inhibited"},
      {"measurement": "Inhibition of growth by antibiotic", "setting": "Strain 98Nt.4", "result": "not inhibited"},
      {"measurement": "Inhibition of growth by antibiotic", "setting": "Strain 86M.4", "result": "not inhibited"}
    ]}
  ]
}
